PubChem BioAssay (NCI)
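Exposure lasted 48 hours, with cells grown in 96-well plates and compounds tested at five concentrations. The concentration for full growth arrest is given as TGI.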

Legend:
Assay in all cases: growth of human tumour cells (NCI), 48 h
786-0 renal = test system: 786-0 renal
A498 renal = test system: A498 renal
A549 NSCLC = test system: A549 NSCLC
ACHN renal = test system: ACHN renal
CCRF-CEM leukemia = test system: CCRF-CEM leukemia
COLO 205 colon = test system: COLO 205 colon
DLD-1 colon = test system: DLD-1 colon
DMS 114 small cell lung = test system: DMS 114 small cell lung
DMS 273 small cell lung = test system: DMS 273 small cell lung
EKVX NSCLC = test system: EKVX NSCLC
HCC-2998 colon = test system: HCC-2998 colon
HCT-15 colon = test system: HCT-15 colon
HOP-18 NSCLC = test system: HOP-18 NSCLC
HT29 colon = test system: HT29 colon
IGROV1 ovarian = test system: IGROV1 ovarian
K-562 leukemia = test system: K-562 leukemia
KM12 colon = test system: KM12 colon
LOX IMVI melanoma = test system: LOX IMVI melanoma
LXFL 529 NSCLC = test system: LXFL 529 NSCLC
M14 melanoma = test system: M14 melanoma
M19-MEL melanoma = test system: M19-MEL melanoma
MALME-3M melanoma = test system: MALME-3M melanoma
MOLT-4 leukemia = test system: MOLT-4 leukemia
NCI-H226 lung = test system: NCI-H226 lung
NCI-H23 lung = test system: NCI-H23 lung
NCI-H460 lung = test system: NCI-H460 lung
OVCAR-3 ovarian = test system: OVCAR-3 ovarian
OVCAR-4 ovarian = test system: OVCAR-4 ovarian
OVCAR-5 ovarian = test system: OVCAR-5 ovarian
OVCAR-8 ovarian = test system: OVCAR-8 ovarian
RPMI-8226 leukemia = test system: RPMI-8226 leukemia
RXF 393 renal = test system: RXF 393 renal
RXF-631 renal = test system: RXF-631 renal
SF-268 CNS = test system: SF-268 CNS
SF-295 CNS = test system: SF-295 CNS
SF-539 CNS = test system: SF-539 CNS
SK-MEL-28 melanoma = test system: SK-MEL-28 melanoma
SK-MEL-5 melanoma = test system: SK-MEL-5 melanoma
SK-OV-3 ovarian = test system: SK-OV-3 ovarian
SN12C renal = test system: SN12C renal
SNB-19 CNS = test system: SNB-19 CNS
SNB-75 CNS = test system: SNB-75 CNS
SNB-78 CNS = test system: SNB-78 CNS
SR leukemia = test system: SR leukemia
SW-620 colon = test system: SW-620 colon
TK-10 renal = test system: TK-10 renal
U251 CNS = test system: U251 CNS
UACC-62 melanoma = test system: UACC-62 melanoma
UO-31 renal = test system: UO-31 renal
XF 498 CNS = test system: XF 498 CNS
HCT-116 colon = test system: HCT-116 colon
HL-60(TB) leukemia = test system: HL-60(TB) leukemia
HOP-62 NSCLC = test system: HOP-62 NSCLC
HOP-92 NSCLC = test system: HOP-92 NSCLC
KM20L2 colon = test system: KM20L2 colon
NCI-H522 lung = test system: NCI-H522 lung
SK-MEL-2 melanoma = test system: SK-MEL-2 melanoma
UACC-257 melanoma = test system: UACC-257 melanoma

SMILES: O=C1NC(=O)C2C1c1[nH]c3ccccc3c1C1CCCC12 (centres undefined)
- TGI (786-0 renal): > 100 µM
- TGI (A498 renal): 26.6 µM
- TGI (A549 NSCLC): > 100 µM
- TGI (ACHN renal): > 100 µM
- TGI (CCRF-CEM leukemia): > 100 µM
- TGI (COLO 205 colon): 32.1 µM
- TGI (DLD-1 colon): > 100 µM
- TGI (DMS 114 small cell lung): 29.5 µM
- TGI (DMS 273 small cell lung): 12.6 µM
- TGI (EKVX NSCLC): > 100 µM
- TGI (HCC-2998 colon): > 100 µM
- TGI (HCT-15 colon): > 100 µM
- TGI (HOP-18 NSCLC): 83.8 µM
- TGI (HT29 colon): > 100 µM
- TGI (IGROV1 ovarian): > 100 µM
- TGI (K-562 leukemia): > 100 µM
- TGI (KM12 colon): > 100 µM
- TGI (LOX IMVI melanoma): > 100 µM
- TGI (LXFL 529 NSCLC): > 100 µM
- TGI (M14 melanoma): > 100 µM
- TGI (M19-MEL melanoma): > 100 µM
- TGI (MALME-3M melanoma): > 100 µM
- TGI (MOLT-4 leukemia): > 100 µM
- TGI (NCI-H226 lung): 51.7 µM
- TGI (NCI-H23 lung): > 100 µM
- TGI (NCI-H460 lung): > 100 µM
- TGI (OVCAR-3 ovarian): 5.64 µM
- TGI (OVCAR-4 ovarian): > 100 µM
- TGI (OVCAR-5 ovarian): > 100 µM
- TGI (OVCAR-8 ovarian): 64.5 µM
- TGI (RPMI-8226 leukemia): > 100 µM
- TGI (RXF 393 renal): 24.4 µM
- TGI (RXF-631 renal): > 100 µM
- TGI (SF-268 CNS): 39.1 µM
- TGI (SF-295 CNS): 6.56 µM
- TGI (SF-539 CNS): 11.8 µM
- TGI (SK-MEL-28 melanoma): > 100 µM
- TGI (SK-MEL-5 melanoma): 8.66 µM
- TGI (SK-OV-3 ovarian): 45.4 µM
- TGI (SN12C renal): > 100 µM
- TGI (SNB-19 CNS): > 100 µM
- TGI (SNB-75 CNS): 6.29 µM
- TGI (SNB-78 CNS): > 100 µM
- TGI (SR leukemia): > 100 µM
- TGI (SW-620 colon): > 100 µM
- TGI (TK-10 renal): > 100 µM
- TGI (U251 CNS): 22.6 µM
- TGI (UACC-62 melanoma): > 100 µM
- TGI (UO-31 renal): > 100 µM
- TGI (XF 498 CNS): 6.85 µM

SMILES: CC#C[C@@]1(O)CCCCC1O (some centres undefined)
- TGI (786-0 renal): > 100 µM
- TGI (A498 renal): > 100 µM
- TGI (A549 NSCLC): > 100 µM
- TGI (ACHN renal): > 100 µM
- TGI (CCRF-CEM leukemia): > 100 µM
- TGI (COLO 205 colon): > 100 µM
- TGI (DMS 114 small cell lung): > 100 µM
- TGI (DMS 273 small cell lung): > 100 µM
- TGI (EKVX NSCLC): > 100 µM
- TGI (HCC-2998 colon): > 100 µM
- TGI (HCT-116 colon): > 100 µM
- TGI (HCT-15 colon): > 100 µM
- TGI (HL-60(TB) leukemia): > 100 µM
- TGI (HOP-18 NSCLC): > 100 µM
- TGI (HOP-62 NSCLC): > 100 µM
- TGI (HOP-92 NSCLC): > 100 µM
- TGI (HT29 colon): > 100 µM
- TGI (IGROV1 ovarian): > 100 µM
- TGI (K-562 leukemia): > 100 µM
- TGI (KM12 colon): > 100 µM
- TGI (KM20L2 colon): > 100 µM
- TGI (LOX IMVI melanoma): > 100 µM
- TGI (M14 melanoma): > 100 µM
- TGI (M19-MEL melanoma): > 100 µM
- TGI (MALME-3M melanoma): > 100 µM
- TGI (MOLT-4 leukemia): > 100 µM
- TGI (NCI-H226 lung): > 100 µM
- TGI (NCI-H23 lung): > 100 µM
- TGI (NCI-H460 lung): > 100 µM
- TGI (NCI-H522 lung): > 100 µM
- TGI (OVCAR-3 ovarian): > 100 µM
- TGI (OVCAR-4 ovarian): > 100 µM
- TGI (OVCAR-8 ovarian): > 100 µM
- TGI (RPMI-8226 leukemia): > 100 µM
- TGI (RXF 393 renal): > 100 µM
- TGI (RXF-631 renal): > 100 µM
- TGI (SF-268 CNS): > 100 µM
- TGI (SF-295 CNS): > 100 µM
- TGI (SF-539 CNS): > 100 µM
- TGI (SK-MEL-2 melanoma): > 100 µM
- TGI (SK-MEL-28 melanoma): > 100 µM
- TGI (SK-MEL-5 melanoma): > 100 µM
- TGI (SK-OV-3 ovarian): > 100 µM
- TGI (SN12C renal): > 100 µM
- TGI (SNB-19 CNS): > 100 µM
- TGI (SNB-75 CNS): > 100 µM
- TGI (SNB-78 CNS): > 100 µM
- TGI (SW-620 colon): > 100 µM
- TGI (TK-10 renal): > 100 µM
- TGI (U251 CNS): > 100 µM
- TGI (UACC-257 melanoma): > 100 µM
- TGI (UACC-62 melanoma): > 100 µM
- TGI (UO-31 renal): > 100 µM
- TGI (XF 498 CNS): > 100 µM
